The text below walks through data of US20250066736A1, “HIGH-THROUGHPUT 3D CELL SPHEROID CULTURE CHIP, PREPARATION PROCESS AND USES THEREOF” (National Taiwan University, priority 2023, published 2025).

The subject of this data set is hepatocytes. Nature of the data set: In vitro liver fibrosis/toxicity model: relative cell viability of hepatocytes with CCl4-induced injury. The class given is cell-based, Sprague Dawley rats. The note with it: for relative cell viability: 24 h (day 1). How it is done: The procedure regarding in vitro liver fibrosis model is as follows. To create an in vitro toxicity model, we used CCl4 as a known hepatotoxic agent capable of inducing severe hepatotoxicity, ultimately leading to liver fibrosis. Initially, a stock solution of CCl4 was prepared by dissolving it in DMSO to a concentration of 20%. Subsequently, hepatocytes were aliquoted into 15-mL centrifuge tubes. These hepatocytes were subjected to a 10-min toxication process with CCl4 (0.05, 0.075, 0.1, 0.15, 0.2%)-containing culture medium (serum-free). Subsequently, hepatocytes were washed three times with PBS with centrifugation at 50×g for 1 min at 4° C. Thereafter, the supernatant was carefully removed, and the final cell pellet was seeded onto 0.1 mg/mL collagen-coated Petri dish at a density of 5×10^5 cells/mL.
The procedure regarding relative cell viability and liver-specific function of in vitro HUVEC-covered hepatocyte spheroids embedded in gel cultures is as follows. To assess relative cell viability, separate media formulations were used for 2D dish and 3D gel cultures. Specifically, 10% MTT-containing medium was used for the 2D dish culture, whereas 10% CCK8-containing medium was used for evaluating the cell viability in 3D hydrogel or spheroids. For MTT analysis, after 4-h incubation, half of the supernatant was removed from each well, and an equivalent volume of DMSO was added. Following an additional 10 min of incubation, absorbance was measured at 570 nm. For CCK8 analysis, after 4 h of incubation, 100 μL of the supernatant was transferred to a 96-well plate, and absorbance was measured at 450 nm. To calculate relative cell viability from days 1 to 14, the absorbance value of hepatocytes (or hepatocyte spheroids) in the control group (only gel without cells) measured on day 1 was used as baseline (blank) to exclude the influence of the gel. The absorbance value of each experimental condition was then divided by the value of the blank to obtain relative cell viability.

In the case of `ClC(Cl)(Cl)Cl` [CCl4, Carbon tetrachloride], the relative cell viability by setting is: (CCl4 concentration 0.05%) 60.53%±3.19%; (CCl4 concentration 0.075%) 51.70%±5.99%; (CCl4 concentration 0.1%) 28.06%±2.29%; (CCl4 concentration 0.15%) 2.67%±0.25%; (CCl4 concentration 0.2%) 2.46%±0.63%. Also, under “estimated from viability at 24 h”, the “half-maximal inhibitory concentration (IC50) for hepatocytes” value was 0.075%.
